Laboratory results from US20250289789A1, “REVERSIBLE LYSINE COVALENT MODIFIERS OF CDK2 AND USES THEREOF” (Terremoto Biosciences, Inc., priority 2023, published 2025).
Read-outs that look alike come from different tables or passages of the source.

Columns and labels:
Assay type in all cases: cell-based
[1] = biological target: T1, CDK1-NanoLuc fusion with CCNB1 in 293T or 293 cells (Homo sapiens, UniProt P06493); experiment: NanoBRET Target Engagement (TE) Intracellular Kinase Assay, CDK1/CCNB1; settings: NanoBRET TE intracellular kinase assay, 2-hour incubation, read-out: NanoBRET-CDK1/B1 IC50
T1 construct: host or cells: 293T (ATCC CRL-3216) or 293 (ATCC CRL-1573)
T1 sequence (P06493 whole entry, the tested form may be a part): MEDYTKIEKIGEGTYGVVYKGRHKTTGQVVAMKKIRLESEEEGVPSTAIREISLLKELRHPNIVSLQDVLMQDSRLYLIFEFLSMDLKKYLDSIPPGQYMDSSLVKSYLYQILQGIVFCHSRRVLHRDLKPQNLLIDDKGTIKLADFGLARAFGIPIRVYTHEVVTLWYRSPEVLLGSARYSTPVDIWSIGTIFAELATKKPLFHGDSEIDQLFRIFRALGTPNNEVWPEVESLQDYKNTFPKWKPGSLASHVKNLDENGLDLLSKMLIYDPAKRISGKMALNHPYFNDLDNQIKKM
T1 sequence (P14635 whole entry partner, the tested form may be a part): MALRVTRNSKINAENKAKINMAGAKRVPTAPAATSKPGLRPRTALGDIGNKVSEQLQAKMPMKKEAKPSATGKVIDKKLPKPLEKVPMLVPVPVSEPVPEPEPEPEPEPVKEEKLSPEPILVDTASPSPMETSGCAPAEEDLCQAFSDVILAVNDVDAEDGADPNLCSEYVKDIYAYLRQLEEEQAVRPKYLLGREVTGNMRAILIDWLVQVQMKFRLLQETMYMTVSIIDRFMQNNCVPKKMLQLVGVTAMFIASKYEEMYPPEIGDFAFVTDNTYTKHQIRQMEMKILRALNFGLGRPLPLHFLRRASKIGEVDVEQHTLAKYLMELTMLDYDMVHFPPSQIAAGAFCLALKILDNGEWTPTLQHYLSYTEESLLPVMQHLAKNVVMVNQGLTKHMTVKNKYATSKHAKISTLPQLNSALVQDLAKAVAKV
Experimental: Inhibitory effects of compounds were measured in NanoBRET TE Intracellular Kinase Assay. 293T (ATCC; CRL-3216) or 293 (ATCC; CRL-1573) cell lines were maintained in 90% DMEM and 10% fetal bovine serum at 37° C., 5% CO2, and 95% relative humidity. Cells were trypsinized and resuspended in assay media (99% Opti-MEM I Reduced Serum Medium, no phenol red, and 1% fetal bovine serum). Cells were co-transfected with 1 μg/mL of CDK-NanoLuc Fusion Vector (Promega; NV2701 for CDK1, NV2781 for CDK2, NV2811 for CDK4, NV2841 for CDK6) and 1 μg/mL of the corresponding Cyclin Expression Vector (Promega; NV2601 for CCNB1, NV2641 for CCNE1, NV2621 for CCND1, NV2631 for CCND3) using FuGENE HD Transfection Reagent (Promega; E2311). 40 uL/well of cells with transfection mixture were seeded in 384-well plates at 1.25×10^5 to 2×10^5 cells/mL and incubated for 24 hours at 37° C., 5% CO2, and 95% relative humidity. On the next day, 100 nL of 100 μM NanoBRET Tracer K-10 (Promega; N2640) and 40 nL of 1000× test compounds prepared in DMSO were added to the cells in each well of 384-well plates for a 2-hour incubation at 37° C., 5% CO2, and 95% relative humidity. 20 uL/well of 3× Intracellular TE Nano-Glo Substrate/Inhibitor (Promega; N2162) were added to 384-well plates and incubated for 3 minutes at room temperature. NanoBRET signals (donor emission wavelength at 450 nm, acceptor emission wavelength at 610 nm) were measured using Envision plate reader (PerkinElmer). NanoBRET ratio was calculated by: BRET Ratio=raw signal for acceptor/raw signal for donor. Dose response curve normalized to DMSO control was plotted using four-parameter logistic model for IC50 calculation.

[2] = biological target: T2, CDK2-NanoLuc fusion with CCNE1 in 293T or 293 cells (Homo sapiens, UniProt P24941); experiment: NanoBRET Target Engagement (TE) Intracellular Kinase Assay, CDK2/CCNE1; settings: NanoBRET TE intracellular kinase assay, 2-hour incubation, read-out: NanoBRET-CDK2/E1 IC50
T2 construct: host or cells: 293T (ATCC CRL-3216) or 293 (ATCC CRL-1573)

[3] = tested on: Phospho-Rb Ser807/811 in OVCAR3 cells; experiment: OVCAR3 Phospho-Rb Ser807/811 HTRF assay; settings: Homo sapiens, OVCAR-3, 1 h, read-out: pRb-OVCAR3 IC50
Experimental: Cells were trypsinized and resuspended in 1 mM hydroxyurea (Sigma; H8627), 90% RPMI and 10% fetal bovine serum. […] Dose response curve normalized to DMSO control was plotted using four-parameter logistic model for IC50 calculation.

[4] = biological target: T3, CDK4-NanoLuc fusion with CCND1 in 293T or 293 cells (Homo sapiens, UniProt P11802); experiment: NanoBRET Target Engagement (TE) Intracellular Kinase Assay, CDK4/CCND1; settings: NanoBRET TE intracellular kinase assay, 2-hour incubation, read-out: NanoBRET-CDK4/D1 IC50
T3 construct: host or cells: 293T (ATCC CRL-3216) or 293 (ATCC CRL-1573)
T3 sequence (P11802 whole entry, the tested form may be a part): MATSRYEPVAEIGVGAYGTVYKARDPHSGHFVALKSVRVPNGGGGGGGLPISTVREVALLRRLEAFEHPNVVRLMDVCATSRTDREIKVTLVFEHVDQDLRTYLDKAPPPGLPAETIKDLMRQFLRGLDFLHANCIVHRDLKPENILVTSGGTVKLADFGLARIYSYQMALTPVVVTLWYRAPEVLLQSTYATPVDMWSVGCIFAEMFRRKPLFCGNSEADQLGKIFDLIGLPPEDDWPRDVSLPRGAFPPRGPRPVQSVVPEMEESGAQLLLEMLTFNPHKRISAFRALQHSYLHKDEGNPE
T3 sequence (P24385 whole entry partner, the tested form may be a part): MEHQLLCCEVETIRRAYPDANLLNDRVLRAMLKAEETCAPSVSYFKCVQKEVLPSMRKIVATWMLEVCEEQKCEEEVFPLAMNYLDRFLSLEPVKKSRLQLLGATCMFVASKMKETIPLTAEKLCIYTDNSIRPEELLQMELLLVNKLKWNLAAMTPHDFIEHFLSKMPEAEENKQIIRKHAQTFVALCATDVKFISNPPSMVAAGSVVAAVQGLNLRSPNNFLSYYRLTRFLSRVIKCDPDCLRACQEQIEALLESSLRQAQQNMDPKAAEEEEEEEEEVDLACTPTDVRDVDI

[5] = OVCAR3 cells, Phospho-Rb Ser807/811 HTRF, 1 hour incubation

Structure (SMILES)	IC50 [1]	IC50 [2]	IC50 [4]	IC50 [3, 5]	IC50 [3]
COc1cc(O)c(C=O)c(-n2cc(CC(=O)Nc3cc([C@H]4CC[C@@H](OC(=O)NC(C)C)C4)[nH]n3)cn2)c1 [Compound 79, (1R,3S)-3-(5-{2-[1-(2-formyl-3-hydroxy-5-methoxyphenyl)pyrazol-4-yl]acetamido}-2H-pyrazol-3-yl) cyclopentyl N-isopropylcarbamate]	47 nM	14.2 nM	727 nM		505 nM
Cc1ncc(Oc2cccc(O)c2C=O)nc1C(=O)Nc1cc([C@H]2CC[C@@H](OC(=O)NC(C)C)C2)[nH]n1 [Compound 70, (1R,3S)-3-{5-[6-(2-formyl-3-hydroxyphenoxy)-3-methylpyrazine-2-amido]-2H-pyrazol-3-yl}cyclopentyl N-isopropylcarbamate]	337 nM	10.1 nM	699 nM	2680 nM	
COc1cc(O)c(C=O)c(OCC(=O)Nc2cc([C@H]3CC[C@@H](OC(=O)N4C5CCCC4C5)C3)[nH]n2)c1 [Compound 220]	8.36 nM	2.89 nM	1460 nM	32.1 nM	
CC(C)NC(=O)O[C@@H]1CC[C@H](c2cc(NC(=O)c3cc(-c4cnccc4C=O)nn3C)n[nH]2)C1 [Compound 44, (1R,3S)-3-(3-(3-(4-formylpyridin-3-yl)-1-methyl-1H-pyrazole-5-carboxamido)-1H-pyrazol-5-yl)cyclopentyl isopropylcarbamate; trifluoroacetic acid]	168 nM	6.37 nM	1550 nM	485 nM	
CC(C)NC(=O)O[C@@H]1CC[C@H](c2cc(NC(=O)c3cc(C#Cc4cccc(O)c4C=O)nn3C)n[nH]2)C1 [Compound 29, (1R,3S)-3-(5-{5-[2-(2-formyl-3-hydroxyphenyl)ethynyl]-2-methylpyrazole-3-amido}-2H-pyrazol-3-yl)cyclopentyl N-isopropylcarbamate]	494 nM	18.6 nM	1550 nM	2150 nM	
CC(C)NC(=O)O[C@@H]1CC[C@H](c2cc(NC(=O)c3cc(COc4cccc(O)c4C=O)nn3C)n[nH]2)C1 [Compound 27, (1R,3S)-3-{5-[5-(2-formyl-3-hydroxyphenoxymethyl)-2-methylpyrazole-3-amido]-2H-pyrazol-3-yl}cyclopentyl N-isopropylcarbamate]	17.7 nM	5.24 nM	112 nM	95.2 nM	
Cc1ccc(OCC(=O)Nc2cc([C@H]3CC[C@@H](OC(=O)NC(C)C)C3)[nH]n2)c(C=O)c1O [Compound 56, (1R,3S)-3-(3-(2-(2-formyl-3-hydroxy-4-methylphenoxy)acetamido)-1H-pyrazol-5-yl)cyclopentyl isopropylcarbamate]	4.83 nM	1.32 nM	> 10000 nM	75.8 nM	
CC(C)NC(=O)O[C@@H]1CC[C@H](c2cc(NC(=O)Cc3ccc(-c4cccc(O)c4C=O)cc3)n[nH]2)C1 [Compound 68, (1R,3S)-3-[5-(2-{2′-formyl-3′-hydroxy-[1,1′-biphenyl]-4-yl}acetamido)-2H-pyrazol-3-yl]cyclopentyl N-isopropylcarbamate; trifluoroacetic acid]	39.2 nM	5.56 nM	1150 nM	662 nM	
CC(C)NC(=O)O[C@@H]1CC[C@H](c2cc(NC(=O)[C@H]3C[C@@H]3c3cccc(O)c3C=O)n[nH]2)C1 (single isomer, unassigned) [Compound 10]	11.3 nM	6.04 nM	1000 nM	67.6 nM	
COc1cc(O)c(C=O)c(OCC(=O)Nc2cc([C@H]3CC[C@@H](OC(=O)N4CC5CC(C4)O5)C3)[nH]n2)c1 [Compound 235]	48.5 nM	7.6 nM	> 10000 nM	121 nM	
Cc1cc(O)c(C=O)c(OCC(=O)Nc2cc([C@H]3CC[C@@H](OC(=O)N4C5COCC4C5)C3)[nH]n2)c1 [Compound 199]	19.9 nM	3.76 nM	6500 nM	58.5 nM	
CC(=O)Nc1cc(C(=O)Nc2cc([C@H]3CC[C@@H](OC(=O)NC(C)C)C3)[nH]n2)ccc1C=O [Compound 37, (1R,3S)-3-(3-(3-acetamido-4-formylbenzamido)-1H-pyrazol-5-yl)cyclopentyl isopropylcarbamate]	176 nM	15.6 nM	128 nM	344 nM	

The next lines start with results.

IC50 [1]	IC50 [2]	IC50 [4]	IC50 [3, 5]	Structure (SMILES)	IC50 [3]
11.4 nM	4.13 nM	> 10000 nM	61.6 nM	COc1cc(O)c(C=O)c(OCC(=O)Nc2cc([C@H]3C[C@@H](OC(=O)NC(C)C)C3)[nH]n2)c1 [Compound 113, (1s,3s)-3-(3-(2-(2-formyl-3-hydroxy-5-methoxyphenoxy)acetamido)-1H-pyrazol-5-yl)cyclobutyl isopropylcarbamate]	
106 nM	20.2 nM	575 nM	1950 nM	CC(C)NC(=O)O[C@@H]1CC[C@H](c2cc(NC(=O)COc3cc(F)cc(O)c3C=O)n[nH]2)C1 [Compound 248]	
6.31 nM	2.98 nM	1070 nM	21.8 nM	COc1cc(O)c(C=O)c(OCC(=O)Nc2cc([C@H]3CC[C@@H](OC(=O)N4[C@@H](C)COC[C@@H]4C)C3)[nH]n2)c1 [Compound 212]	
37.3 nM	1.86 nM	9240 nM	65.8 nM	CC(C)NC(=O)O[C@@H]1CC[C@H](c2cc(NC(=O)COc3cc(OC(C)C)cc(O)c3C=O)n[nH]2)C1 [Compound 250]	
5.62 nM	2.46 nM	> 10000 nM	27.4 nM	COc1cc(O)c(C=O)c(OCC(=O)Nc2cc([C@H]3CC[C@@H](OC(=O)N4CCOC[C@H]4C)C3)[nH]n2)c1 [Compound 206]	
42 nM	3.47 nM	> 10000 nM	227 nM	O=Cc1c(O)cccc1OCC(=O)Nc1cc([C@H]2CC[C@@H](OC(=O)NC3CCCC3)C2)[nH]n1 [Compound 88, (1R,3S)-3-(3-(2-(2-formyl-3-hydroxyphenoxy)acetamido)-1H-pyrazol-5-yl)cyclopentyl cyclopentylcarbamate]	
32.5 nM	3.73 nM	> 10000 nM	212 nM	O=Cc1c(O)cccc1OCC(=O)Nc1cc([C@H]2CC[C@@H](OC(=O)NC3CC3)C2)[nH]n1 [Compound 86, (1R,3S)-3-(3-(2-(2-formyl-3-hydroxyphenoxy)acetamido)-1H-pyrazol-5-yl)cyclopentyl cyclopropylcarbamate]	
7.61 nM	3.84 nM	2830 nM	63.7 nM	C#C[C@@H]1CCCN1C(=O)O[C@@H]1CC[C@H](c2cc(NC(=O)COc3cc(OC)cc(O)c3C=O)n[nH]2)C1 [Compound 222]	
213 nM	43.8 nM	5100 nM	761 nM	COc1cc(O)c(C=O)c([C@H]2C[C@@H]2C(=O)Nc2cc([C@H]3CC[C@@H](OC(=O)NC(C)C)C3)[nH]n2)c1 (single isomer, unassigned) [Compound 90]	
22.9 nM	3.05 nM	3850 nM	77.6 nM	COc1cc(O)c(C=O)c(OCC(=O)Nc2cc([C@@H]3CCC(OC(=O)N4CCCC4)C3)[nH]n2)c1 (stereo partly shown) [Compound 241]	
18.6 nM	7.37 nM	> 10000 nM	60 nM	COc1cc(O)c(C=O)c(OCC(=O)Nc2cc([C@H]3CC[C@@H](OC(=O)N4C[C@H]5C[C@@H]4CO5)C3)[nH]n2)c1 [Compound 203]	
44.7 nM	2.98 nM	> 10000 nM	60.9 nM	COc1cc(O)c(C=O)c(OCC(=O)Nc2cc([C@H]3CC[C@@H](OC(=O)NN4CCCC4)C3)[nH]n2)c1 [Compound 217]	
8.56 nM	1.71 nM	5250 nM	24.1 nM	CCCNC(=O)O[C@@H]1CC[C@H](c2cc(NC(=O)COc3cc(OC)cc(O)c3C=O)n[nH]2)C1 [Compound 221]	
